# From ChEMBL document CHEMBL1158966, “Chemical characterization and pharmacological activity of nazlinin, a novel indole alkaloid from Nitraria schoberi” (1991)
# Calls of active or inactive are those of the source. The rule behind the calls is not given here.
# Key:
# Oryctolagus cuniculus [1] = organism: Oryctolagus cuniculus; experiment: Vasorelaxant activity against PGF2-alpha-induced contraction in endothelium-denuded rabbit aortic rings at 0.04 to 400 nmol; assay type: functional, tissue-based; conditions: Aorta
# Oryctolagus cuniculus [2] = organism: Oryctolagus cuniculus; experiment: Vasorelaxant activity against PGF2-alpha-induced contraction in endothelium-intact rabbit aortic rings in presence of propranolol hydrochloride; assay type: functional, tissue-based; conditions: Aorta
# Oryctolagus cuniculus [3] = organism: Oryctolagus cuniculus; experiment: Vasorelaxant activity against PGF2-alpha-induced contraction in endothelium-intact rabbit aortic rings up to 40 nmol; assay type: functional, tissue-based; conditions: Aorta
# [4] = Contractile activity in rabbit celiac arteries relative to control; assay type: functional; conditions: Oryctolagus cuniculus, Celiac artery
# [5] = Contractile activity in rabbit mesenteric arteries relative to control; assay type: functional; conditions: Oryctolagus cuniculus, Mesenteric artery
# Oryctolagus cuniculus [6] = organism: Oryctolagus cuniculus; experiment: Vasorelaxant activity against PGF2-alpha-induced contraction in endothelium-intact rabbit aortic rings in presence of phentolamine; assay type: functional, tissue-based; conditions: Aorta
# Aorta [7] = experiment: Contractile activity in endothelium-intact rabbit aortic rings in presence of ketanserin tartrate; assay type: functional, tissue-based; conditions: Oryctolagus cuniculus
# Aorta [8] = experiment: Contractile activity in endothelium-intact rabbit aortic rings at >40 nmol to 400 nmol; assay type: functional, tissue-based; conditions: Oryctolagus cuniculus
# [9] = (§1) Contractile activity in rabbit mesenteric artery; assay type: functional, Oryctolagus cuniculus
# Oryctolagus cuniculus [10] = organism: Oryctolagus cuniculus; experiment: as §1; assay type: functional
# Oryctolagus cuniculus [11] = organism: Oryctolagus cuniculus; experiment: Vasorelaxant activity against PGF2-alpha-induced contraction in endothelium-intact rabbit aortic rings in presence of prazosin; assay type: functional, tissue-based; conditions: Aorta
# Oryctolagus cuniculus [12] = organism: Oryctolagus cuniculus; experiment: Vasorelaxant activity against PGF2-alpha-induced contraction in endothelium-intact rabbit aortic rings in presence of ketanserin tartrate; assay type: functional, tissue-based; conditions: Aorta
# [13] = (§2) Contractile activity in rabbit celiac artery; assay type: functional, Oryctolagus cuniculus
# Oryctolagus cuniculus [14] = organism: Oryctolagus cuniculus; experiment: as §2; assay type: functional
# Oryctolagus cuniculus [15] = organism: Oryctolagus cuniculus; experiment: Vasorelaxant activity against PGF2-alpha-induced contraction in endothelium-intact rabbit aortic rings in presence of atropine sulfate; assay type: functional, tissue-based; conditions: Aorta
# Oryctolagus cuniculus [16] = organism: Oryctolagus cuniculus; experiment: Vasorelaxant activity against PGF2-alpha-induced contraction in endothelium-intact rabbit aortic rings in presence of indomethacin; assay type: functional, tissue-based; conditions: Aorta
Structure (SMILES),Activity (Oryctolagus cuniculus [1]),Activity (Oryctolagus cuniculus [2]),Activity (Oryctolagus cuniculus [3]),Emax [4] [%],Emax [5] [%],Activity (Oryctolagus cuniculus [6]),Activity (Aorta [7]),Activity (Aorta [8]),ED50 [9] [nmol],Activity (Oryctolagus cuniculus [10]),Activity (Oryctolagus cuniculus [11]),Activity (Oryctolagus cuniculus [12]),ED50 [13] [nmol],Activity (Oryctolagus cuniculus [14]),Activity (Oryctolagus cuniculus [15]),Activity (Oryctolagus cuniculus [16])
NC1CCCCNCCc2c1[nH]c1ccccc21 (stereo not given) [NAZLININ],inactive,Active,Active,71,83,Active,inactive,Active,70,Dose-dependent effect,Active,Active,115,Dose-dependent effect,Active,Active
NCCc1c[nH]c2ccc(O)cc12 [SEROTONIN],inactive,–,Active,110,108,–,–,Active,0.126,Dose-dependent effect,–,–,0.156,Dose-dependent effect,–,–
